According to patent US9809604B2, “DGAT1 inhibitor and preparation method and use thereof” (Qingdao Huanghai Pharmaceutical Co., Ltd., priority 2013, dated 2017):
Read-outs that look alike come from different tables or passages of the source.

Biological target: T1, DGAT1 (Homo sapiens, UniProt O75907)
T1 sequence (O75907 1-488): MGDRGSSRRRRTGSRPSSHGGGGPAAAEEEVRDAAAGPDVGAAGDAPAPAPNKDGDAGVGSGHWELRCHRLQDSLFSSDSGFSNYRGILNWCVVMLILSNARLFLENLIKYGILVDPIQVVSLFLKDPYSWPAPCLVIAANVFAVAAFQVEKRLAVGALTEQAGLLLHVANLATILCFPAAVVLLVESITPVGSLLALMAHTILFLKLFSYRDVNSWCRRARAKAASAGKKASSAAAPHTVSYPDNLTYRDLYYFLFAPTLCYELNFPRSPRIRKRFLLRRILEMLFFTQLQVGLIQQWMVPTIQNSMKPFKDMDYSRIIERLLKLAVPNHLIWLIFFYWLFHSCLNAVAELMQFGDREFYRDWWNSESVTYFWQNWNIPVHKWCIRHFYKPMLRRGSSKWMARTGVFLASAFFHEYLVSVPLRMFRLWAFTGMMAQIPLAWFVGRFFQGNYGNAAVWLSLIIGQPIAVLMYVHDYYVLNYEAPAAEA
Test: Human DGAT1 IC50 enzyme assay (Flashplate, 14C-labeled acyl-CoA)
Assay type: biochemical
Design: made in house
Experimental: The ability of compounds to inhibit DGAT enzyme activity is determined by calculating IC50 values of test compounds. Ki values of DGAT1 are calculated as follows: Cheng-Prusoff equation: Ki=IC50/(1+[S]/Km)
(1) Human DGAT1 IC50 (nM) Experiment
Human DGAT1 activity was determined as follows:
Expressing human DGAT1 enzyme, used diacylglycerol and 14C-labeled acyl-CoA as the substrate, choose PE Company Flashplate testing board to build DGAT1 enzyme reaction system. 14C-labeled acyl-CoA binds to diacylglycerol by covalent bonding after enzymology reaction, and generates the product of 14C-labeled triglyceride. 14C-labeled acyl-CoA substrate is dissolved in reaction solution and 14C-labeled triglyceride product combine with phospholipids of Flashplate plate bottom layer, thus effectively separate labeled substrates and products. The radioactive of 14C-labeled triglyceride which is combined with phospholipid layer is counted, and the potencies of DGAT-1 inhibition for the compounds are determined by calculating the IC50 values.

[1] = average of first and second, read-out: hDGAT1 IC50(nM) Average
[2] = first determination, read-out: hDGAT1 IC50(nM) First
[3] = second determination, read-out: hDGAT1 IC50(nM) Second

SMILES	IC50 [1] [nM]	IC50 [2] [nM]	IC50 [3] [nM]
Cc1cc(N2CCOc3ncnc(N)c3C2=O)cc(C)c1-c1cn(CC2(C)COC2)nc1C [Compound 47, 4-amino-6-(3,5-dimethyl-4-(3-methyl-1-((3-methyloxetan-3-yl)methyl)-1H-pyrazol-4-yl)phenyl)-7,8-dihydropyrimido[5,4-f][1,4]oxazepin-5(6H)-one]	87	65.4	109
Cc1nn(CCC(=O)O)cc1-c1ccc(N2CCOc3ncnc(N)c3C2=O)cc1Cl [Compound 78, 3-(4-(4-(4-amino-5-oxo-7,8-dihydropyrimido [5,4-f][1,4]oxazepin-6(5H)-yl)-2-chlorophenyl)-3-methyl-1H-pyrazol-1-yl)propanoic acid]	54.8	69.2	40.3
CCc1cc(N2CCOc3ncnc(N)c3C2=O)cc(CC)c1N1CCN(CC(=O)O)C1=O [Compound 19]	101	136	66.5
CCC(C(=O)O)n1cc(-c2ccc(N3CCOc4ncnc(N)c4C3=O)cc2C)cn1 (stereo not drawn) [Compound 64, 2-(4-(4-(4-amino-5-oxo-7,8-dihydropyrimido [5,4-f][1,4]oxazepin-6(5H)-yl)-2-methylphenyl)-1H-pyrazol-1-yl)butanoic acid]	57.6	38.7	76.5
Nc1ncnc2c1C(=O)N(c1ccc3c(c1)CCC(OCC(F)(F)F)C3)CCO2 (single isomer, unassigned) [Compound 108 (peak2), 4-amino-6-(6-(2,2,2-trifluoroethoxy)-5,6,7,8-tetrahydonaphthalen-2-yl)-7,8-dihydropyrimido[5,4-f][1,4]oxazepin-5-(6H)-one]	52.6	56.4	48.8
CC(C)(F)Cn1cc(-c2ccc(N3CCOc4ncnc(N)c4C3=O)cc2Cl)cn1 [Compound 91, 4-amino-6-(3-chloro-4-(1-(2-fluoro-2-methylpropyl)-1H-pyrazol-4-yl)phenyl)-7,8-dihydropyrimido[5,4-f][1,4]oxazepin-5(6H)-one]	20	12.5	27.5
Cc1cc(N2CCOc3ncnc(N)c3C2=O)cc(C)c1-c1cnn(C(C)(C)C(=O)O)c1 [Compound 66, 2-(4-(4-(4-amino-5-oxo-7,8-dihydropyrimido [5,4-f][1,4]oxazepin-6(5H)-yl)-2,6-dimethylphenyl)-1H-pyrazol-1-yl)-2-methylpropanoic acid]	42.6	47.1	38.2
CC(C)CN1CCN(c2ccc(N3CCOc4ncnc(N)c4C3=O)cc2Cl)C1=O [Compound 29, 4-amino-6-(3-chloro-4-(3-isobutyl-2-oxoimidazolidin-1-yl)phenyl)-7,8-dihydropyrimido [5,4-f][1,4]oxazepin-5(6H)-one]	35.2	37.4	32.9
CC(C)(CO)Cn1cc(-c2ccc(N3CCOc4ncnc(N)c4C3=O)cc2Cl)cn1 [Compound 44, 4-amino-6-(3-chloro-4-(1-(3-hydroxy-2,2-dimethylpropyl)-1H-pyrazol-4-yl)phenyl)-7,8-dihydropyrimido[5,4-f][1,4]oxazepin-5(6H)-one]	45	59.5	30.5
Nc1ncnc2c1C(=O)N(c1ccc(-c3cnn(CC4CC4)c3)c(Cl)c1)CCO2 [Compound 87, 4-amino-6-(3-chloro-4-(1-(cyclopropylmethyl)-1H-pyrazol-4-yl)phenyl)-7,8-dihydropyrimido[5,4-f][1,4]oxazepin-5(6H)-one]	46.7	49.3	44.2
Cc1cc(N2CCOc3ncnc(N)c3C2=O)ccc1N1CCN(CC(=O)O)C1=O [Compound 3, 2-(3-(4-(4-amino-5-oxo-7,8-dihydropyrimido[5,4-f][1,4]oxazepin-6(5H)-yl)-2-methylphenyl)-2-oxoimidazolidin-1-yl)acetate acid]	65.2	60.9	69.5
Cc1cc(N2CCOc3ncnc(N)c3C2=O)cc(C)c1-c1cn(CCC(=O)O)nc1C [Compound 83, 3-(4-(4-(4-amino-5-oxo-7,8-dihydropyrimido [5,4-f][1,4]oxazepin-6(5H)-yl)-2,6-dimethylphenyl)-3-methyl-1H-pyrazol-1-yl)propanoic acid]	45.6	52.8	38.4
CC(C)(O)Cn1cc(-c2ccc(N3CCOc4ncnc(N)c4C3=O)cc2Cl)cn1 [Compound 42, 4-amino-6-(3-chloro-4-(1-(2-hydroxy-2-methylpropyl)-1H-pyrazol-4-yl)phenyl)-7,8-dihydropyrimido[5,4-f][1,4]oxazepin-5(6H)-one]	59.6	75	44.2
Cc1cc(N2CCOc3ncnc(N)c3C2=O)cc(C)c1-c1cn(CC(F)F)nc1C [Compound 43, 4-amino-6-(4-(1-(2,2-difluoroethyl)-3-methyl-1H-pyrazol-4-yl)-3,5-dimethylphenyl)-7,8-dihydropyrimido[5,4-f][1,4]oxazepin-5(6H)-one]	17.6	18.5	16.7
CCC(C(=O)O)n1cc(-c2ccc(N3CCOc4ncnc(N)c4C3=O)cc2Cl)cn1 (stereo not drawn) [Compound 61, 2-(4-(4-(4-amino-5-oxo-7,8-dihydropyrimido [5,4-f][1,4]oxazepin-6(5H)-yl)-2-chlorophenyl)-1H-pyrazol-1-yl)butanoic acid]	37.8	28.2	47.4
Nc1ncnc2c1C(=O)N(c1ccc(-c3cnn(CC(=O)O)c3)c(Cl)c1)CCO2 [Compound 56, 2-(4-(4-(4-amino-5-oxo-7,8-dihydropyrimido [5,4-f][1,4]oxaxepin-6(5H)-yl)-2-chlorophenyl)-1H-pyrazol-1-yl)acetic acid]	51.8	65.8	37.7
CC(C)Cn1cc(-c2ccc(N3C[C@@H](C)Oc4ncnc(N)c4C3=O)cc2Cl)cn1 [Compound 45, (R)-4-amino-6-(3-chloro-4-(1-isobutyl-1H-pyrazol-4-yl)phenyl)-8-methyl-7,8-dihydropyrimido[5,4-f][1,4]oxazepin-5(6H)-one]	16	17.4	14.6
Cc1nn(CC(=O)O)cc1-c1ccc(N2CCOc3ncnc(N)c3C2=O)cc1Cl [Compound 36, 2-(4-(4-(4-amino-5-oxo-7,8-dihydropyrimido[5,4-f][1,4]oxazepin-6(5H)-yl)-2-chlorophenyl)-3-methyl-1H-pyrazol-1-yl)acetic acid]	29.3	37.7	21
Nc1ncnc2c1C(=O)N(c1ccc(N3CCN(CC(=O)O)C3=O)c(C(F)(F)F)c1)CCO2 [Compound 25, 2-(3-(4-(4-amino-5-oxo-7,8-dihydropyrimido [5,4-f][1,4]oxazepin-6(5H)-yl)-2-(trifluoromethyl)phenyl)-2-oxoimidazolidin-1-yl)acetic acid]	58.9	57.2	60.7
Cc1cc(N2CCOc3ncnc(N)c3C2=O)ccc1-c1cnn(CC(=O)O)c1 [Compound 57, 2-(4-(4-(4-amino-5-oxo-7,8-dihydropyrimido [5,4-f][1,4]oxazepin-6(5H)-yl)-2-methylphenyl)-1H-pyrazol-1-yl)acetic acid]	91.9	81.3	102
Nc1ncnc2c1C(=O)N(c1ccc(N3CCN(CC4CC4)C3=O)c(Cl)c1)CCO2 [Compound 30, 4-amino-6-(3-chloro-4-(3-(cyclopropylmethyl)-2-oxoimidazolidin-1-yl)phenyl)-7,8-dihydropyrimido [5,4-f][1,4]oxazepin-5(6H)-one]	24.4	25.4	23.4
Cc1cc(N2CCOc3ncnc(N)c3C2=O)cc(Cl)c1N1CCN(CC(=O)O)C1=O [Compound 27]	62.4	69	55.7
Cc1nn(CCC(=O)O)c(C)c1-c1ccc(N2CCOc3ncnc(N)c3C2=O)cc1 [Compound 76]	23.5	14.6	32.4
CN(C)C(=O)C(C)(C)Cn1cc(-c2ccc(N3CCOc4ncnc(N)c4C3=O)cc2Cl)cn1 [Compound 89, 3-(4-(4-(4-amino-5-oxo-7,8-dihydropyrimido [5,4-f][1,4]oxazepin-6(5H)-yl)-2-chlorophenyl)-1H-pyrazol-1-yl)-N,N,2,2-tetramethylpropanamide]	80.7	71.2	90.1
COC(C)(C)Cn1cc(-c2ccc(N3CCOc4ncnc(N)c4C3=O)cc2Cl)cn1 [Compound 94, 4-amino-6-(3-chloro-4-(1-(2-methoxy-2-methylpropyl)-1H-pyrazol-4-yl)phenyl)-7,8-dihydropyrimido[5,4-f][1,4]oxazepin-5(6H)-one]	59.1	63.1	55.1
